Assay results taken from patent US20090220599A1, “Antifungal formulation and manufacturing method thereof” (Industrial Technology Research Institute, priority 2003, published 2009).

Legend:
[1] = background statement; cited from earlier work
[2] = UV-Vis absorbance ratio of sterol-PEG/AmB (affinity comparison); format: binding; settings: for affinity ordering of sterol-PEG to AmB / variation of the UV-Vis absorbance ratios A415nm/A350nm: FIG. 2; for variation of the UV-Vis absorbance ratios A415nm/A350nm: for any mixing molar ratios with AmB
Protocol: (1) Adding 23.1 mg AmB aqueous solution to 5 ml dimethyl sulfoxide (DMSO), and then adding in 495 ml ionized water to prepare a mixture. Taking 10 ml volume out of the mixture, and diluting the 10 ml volume with 30 ml 1% dimethyl sulfoxide (DMSO) aqueous solution to prepare 12.5 μM AmB aqueous solution. (2) Adding 13 g n-propanol to 187 ml ionized water to prepare 6.5% n-propanol aqueous solution. (3) Adding 24.4 mg cholesterol-PEG600 to 6.5 g n-propanol, shaking them to completely dissolve cholesterol-PEG600 in n-propanol, and then adding in 93.5 g ionized water to prepare 250 μM cholesterol-PEG600 aqueous solution. (4) Adding […] stigmasterol-PEG600 to 6.5 g n-propanol, shaking them to completely dissolve stigmasterol-PEG600 in n-propanol, and then adding in 93.5 g ionized water to prepare 250 μM stigmasterol-PEG600 aqueous solution. (5) Adding 24.6 mg ergosterol-PEG600 to 6.5 g n-propanol, shaking them to completely dissolve ergosterol-PEG600 in n-propanol, and then adding in 93.5 g ionized water to prepare 250 μM ergosterol-PEG600 aqueous solution. (6) Mixing 10 ml 12.5 μM AmB and 10 ml 250 μM cholesterol-PEG600, the molar ratio of AmB/cholesterol-PEG600 is 1/20. The UV-Vis absorbance ratio A415nm/A350nm of AmB/cholesterol is 0.40 (scanning from 300 nm to 450 nm). (7) Mixing 10 ml 12.5 μM AmB, 5 ml 6.5% n-propanol and 5 ml 250 μM cholesterol-PEG600. The molar ratio of AmB/cholesterol-PEG600 is 1/10. The UV-Vis absorbance ratio of A415nm/A350nm of AmB/cholesterol-PEG600 is 0.44. (8) Mixing 10 ml 12.5 μM AmB, 7.5 ml 6.5% n-propanol and 2.5 ml 250 μM cholesterol-PEG600. The molar ratio of AmB/cholesterol-PEG600 is 1/5. The UV-Vis absorbance ratio of A415nm/A350nm of AmB/cholesterol-PEG600 is 0.48. (9) Mixing 10 ml 12.5 μM AmB, 9.5 ml 6.5% n-propanol and 0.5 ml 250 μM cholesterol-PEG600. The molar ratio of AmB/cholesterol-PEG600 is 1/1. The UV-Vis absorbance ratio of A415nm/A350nm of AmB/cholesterol-PEG600 is 0.48. (10) Measuring absorbance ratio of stigmasterol-PEG600/AmB and ergosterol-PEG600/AmB by the procedures with the same, the result is shown in FIG. 2.
(§1) Using UV-Vis spectroscopy to measure UV-Vis absorbance ratios of cholesterol-PEG600, stigmasterol-PEG600 and ergosterol-PEG600 prepared in Example I to AmB and UV-Vis absorbance ratios of cholesterol, stigmasterol and ergosterol to AmB. The results are as shown in FIG. 1 and FIG. 2, in which FIG. 1 is a curve diagram of A415nm/A350nm vs. sterol/AmB and FIG. 2 is a curve diagram of A415nm/A350nm vs. sterol-PEG600/AmB.

[3] = UV-Vis absorbance ratio of sterol/AmB (affinity comparison); format: binding; settings: for affinity ordering of these three sterols to AmB: FIG. 1, molar ratios from 1:1 to 20:1
Protocol: (1) Adding 23.1 mg Amphotericin B (AmB) to 5 ml dimethyl sulfoxide (DMSO), and then adding in 495 ml ionized water to prepare a mixture, and taking 10 ml volume out of the mixture; diluting the 10 volume with 30 ml 1% dimethyl sulfoxide (DMSO) solution to prepare 12.5 μM Amphotericin B (AmB) aqueous solution. (2) Adding 13 g n-propanol to 187 ml ionized water to prepare 6.5% n-propanol aqueous solution. (3) Adding 28.9 mg cholesterol to 19.5 g n-propanol, shaking them to completely dissolve cholesterol in n-propanol, and then adding in 280.5 gram ionized water to prepare 250 μM cholesterol aqueous solution. (4) Adding […] stigmasterol to 19.5 g n-propanol, shaking them to completely dissolve stigmasterol in n-propanol, and then adding in 280.5 gram ionized water to prepare 250 μM stigmasterol aqueous solution. (5) Adding 29.7 mg ergosterol to 19.5 g n-propanol, shaking them to completely dissolve ergosterol in n-propanol, and then adding in 280.5 gram ionized water to prepare 250 μM ergosterol aqueous solution. (6) Mixing 10 ml 12.5 μM AmB aqueous solution with 10 ml 250 μM cholesterol aqueous solution. The molar ratio of AmB/cholesterol is 1/20. The UV-Vis absorbance ratio A415nm/A350nm of AmB/cholesterol is 0.61 (scanning from 300 nm to 450 nm). (7) Mixing 10 ml 12.5 μM AmB aqueous solution, 5 ml 6.5% n-propanol aqueous solution and 5 ml 250 μM cholesterol aqueous solution. The molar ratio of AmB/cholesterol is 1/10. The UV-Vis absorbance ratio A415nm/A350nm of AmB/cholesterol is 0.59. (8) Mixing 10 ml 12.5 μM AmB aqueous solution, 7.5 ml 6.5% n-propanol aqueous solution and 2.5 ml 250 μM cholesterol aqueous solution. The molar ratio of AmB/cholesterol is 1/5. The UV-Vis absorbance ratio A415nm/A350nm of AmB/cholesterol is 0.60. (9) Mixing 10 ml 12.5 μM AmB aqueous solution, 9.5 ml 6.5% n-propanol aqueous solution and 0.5 ml 250 μM cholesterol aqueous solution. The molar ratio of AmB/cholesterol is 1/1. The UV-Vis absorbance ratio A415nm/A350nm of AmB/cholesterol is 0.49. (10) Measuring absorbance ratio of stigmasterol/AmB and ergosterol/AmB by the procedures with the same, the result is shown in FIG. 1.
as §1

Row | Molecule | affinity ordering of these three sterols to AmB [3] | affinity ordering of sterol-PEG to AmB [2] | variation of the UV-Vis absorbance ratios A415nm/A350nm [2] | also measured
1 | C[C@@H]1[C@H](O)[C@@H](C)/C=C/C=C/C=C/C=C/C=C/C=C/C=C/[C@H](O[C@@H]2O[C@H](C)[C@@H](O)[C@H](N)[C@@H]2O)C[C@@H]2O[C@](O)(C[C@@H](O)C[C@@H](O)[C@H](O)CC[C@@H](O)C[C@@H](O)CC(=O)O[C@H]1C)C[C@H](O)[C@H]2C(=O)O [Amphotericin B] | – | – | – | affinity for ergosterol of fungal cells compared with that for cholesterols of mammal [1]: ten times better
2 | CC(C)CCC[C@@H](C)[C@H]1CC[C@H]2[C@@H]3CC=C4C[C@@H](O)CC[C@]4(C)[C@H]3CC[C@]12C [cholesterol] | cholesterol<stigmasterol<ergosterol | – | – | UV-Vis absorbance ratio A415nm/A350nm ([2]; molar ratio of AmB/cholesterol-PEG600 1/20, scanning from 300 nm to 450 nm): 0.40; UV-Vis absorbance ratio A415nm/A350nm ([3]; molar ratio of AmB/cholesterol 1/1): 0.49; UV-Vis absorbance ratio A415nm/A350nm ([3]; molar ratio of AmB/cholesterol 1/5): 0.60; UV-Vis absorbance ratio A415nm/A350nm ([3]; molar ratio of AmB/cholesterol 1/10): 0.59; UV-Vis absorbance ratio A415nm/A350nm ([3]; molar ratio of AmB/cholesterol 1/20, scanning from 300 nm to 450 nm): 0.61
3 | CC(C)[C@@H](C)/C=C/[C@@H](C)[C@H]1CC[C@H]2C3=CC=C4C[C@@H](O)CC[C@]4(C)[C@H]3CC[C@]12C [ergosterol] | cholesterol<stigmasterol<ergosterol | – | – | –
4 | CC[C@H](/C=C/[C@@H](C)[C@H]1CC[C@H]2[C@@H]3CC=C4C[C@@H](O)CC[C@]4(C)[C@H]3CC[C@]12C)C(C)C [stigmasterol] | cholesterol<stigmasterol<ergosterol | – | – | –
5 | cholesterol-PEG600 | – | ergosterol-PEG600>stigmasterol-PEG600>cholesterol-PEG600 | insignificant | UV-Vis absorbance ratio A415nm/A350nm ([2]; molar ratio of AmB/cholesterol-PEG600 1/1): 0.48; UV-Vis absorbance ratio A415nm/A350nm ([2]; molar ratio of AmB/cholesterol-PEG600 1/5): 0.48; UV-Vis absorbance ratio A415nm/A350nm ([2]; molar ratio of AmB/cholesterol-PEG600 1/10): 0.44
6 | ergosterol-PEG600 | – | ergosterol-PEG600>stigmasterol-PEG600>cholesterol-PEG600 | insignificant | –
7 | stigmasterol-PEG600 | – | ergosterol-PEG600>stigmasterol-PEG600>cholesterol-PEG600 | insignificant | –
